This is an account of results in US20250340552A1, “COMPOUNDS, COMPOSITIONS AND METHODS OF TREATING DISORDERS” (HOTSPOT THERAPEUTICS, INC., priority 2022, published 2025).

This test concerns the target T1, Cbl-B (Homo sapiens, UniProt Q13191).
T1 construct: MSD-Based Assay for Degradation of Cbl-B in THP-1 Cells; endogenous in cells; host or cells: THP-1 (title) / Jurkat (protocol text)
Kind of test: MSD-based assay for degradation of Cbl-B in THP-1 cells. The class given is cell-based. Summed up:
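Reported Dmax bins are A >70%, B 50–70%, C 30–50% and D <30%, from an electrochemiluminescence (MSD) sandwich assay of Cbl-B in cell lysates. THP-1 cells were exposed to compounds for 24 hours before lysis.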

Where [1] appears, read: Cbl-B degradation, Jurkat cells seeded (heading: THP-1 cells), 24 hours incubation, MSD readout.
The mark [2] stands for this setting: Cbl-B degradation, Jurkat cells seeded (heading: THP-1 cells), 24 hours incubation, MSD readout, read-out: Dmax.

Where two headings read alike, the source gives them in different places.

T1 sequence (Q13191 whole entry): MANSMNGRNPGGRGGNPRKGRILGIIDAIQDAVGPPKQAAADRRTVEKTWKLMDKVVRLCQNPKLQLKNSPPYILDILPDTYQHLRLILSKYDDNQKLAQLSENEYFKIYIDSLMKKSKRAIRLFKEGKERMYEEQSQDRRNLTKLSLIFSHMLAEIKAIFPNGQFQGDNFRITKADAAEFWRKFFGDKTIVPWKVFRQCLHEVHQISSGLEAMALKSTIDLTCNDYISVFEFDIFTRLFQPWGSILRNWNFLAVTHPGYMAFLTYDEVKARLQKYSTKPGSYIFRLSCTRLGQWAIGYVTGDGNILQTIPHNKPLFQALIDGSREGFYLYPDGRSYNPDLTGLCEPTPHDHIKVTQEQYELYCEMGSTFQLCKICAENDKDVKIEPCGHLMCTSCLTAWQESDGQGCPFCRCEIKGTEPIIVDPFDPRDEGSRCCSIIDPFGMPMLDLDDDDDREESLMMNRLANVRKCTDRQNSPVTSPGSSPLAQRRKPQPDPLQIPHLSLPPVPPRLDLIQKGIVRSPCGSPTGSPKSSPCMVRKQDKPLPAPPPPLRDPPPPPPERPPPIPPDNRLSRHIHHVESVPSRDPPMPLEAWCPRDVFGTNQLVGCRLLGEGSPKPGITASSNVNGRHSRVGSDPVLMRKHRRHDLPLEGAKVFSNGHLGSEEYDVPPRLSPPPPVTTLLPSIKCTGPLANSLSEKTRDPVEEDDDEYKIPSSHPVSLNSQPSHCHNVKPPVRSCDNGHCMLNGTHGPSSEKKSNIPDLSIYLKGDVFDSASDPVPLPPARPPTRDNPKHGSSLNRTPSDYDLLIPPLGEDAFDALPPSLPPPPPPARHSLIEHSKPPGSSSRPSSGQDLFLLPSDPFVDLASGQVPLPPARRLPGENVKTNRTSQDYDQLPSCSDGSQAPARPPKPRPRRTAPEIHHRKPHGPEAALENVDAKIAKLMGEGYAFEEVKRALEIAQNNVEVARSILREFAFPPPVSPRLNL

For the compound `Cn1cnnc1CC1(c2cccc(-n3cc4c(C(F)(F)F)cc(CN5CCC(OCCOCc6ccc(CNc7cccc8c7C(=O)N(C7CCC(=O)NC7=O)C8=O)cc6)CC5)cn4c3=O)c2)COC1` (stereo not drawn) [Compound 12], under setting [1], the 50% degradation concentration (DC50) is > 10000 nM. In addition, the Dmax under setting [2] was < 30%.

Compound `Cn1cnnc1[C@@H](c1cccc(-n2cc3c(C(F)(F)F)cc(CN4CCC(OCCNc5cccc6c5C(=O)N(C5CCC(=O)NC5=O)C6=O)CC4)cn3c2=O)c1)C1CCC1` (stereo partly drawn) [Compound 37] displayed a DC50 under setting [1] of 1000 to 10000 nM. Moreover, the Dmax under setting [2] was < 30%.

Regarding `Cn1cnnc1CC1(c2cccc(-n3cc4c(C(F)(F)F)cc(CN5CCC(OCc6ccc(CN7CCN(c8ccc9c(c8)CN([C@@H]8CCC(=O)NC8=O)C9=O)CC7)cc6)CC5)cn4c3=O)c2)COC1` (single isomer, unassigned) [Compound 93], under setting [1], the DC50 fell in the range of 30 to 300 nM. Moreover, the Dmax under setting [2] lay within 50 to 70%.

On to `CO[C@H]1C[C@](c2cccc(-n3cc4c(C(F)(F)F)cc(CN5CCC(OCc6ccc(CN7CCN(c8ccc9c(c8)CN([C@H]8CCC(=O)NC8=O)C9=O)CC7)cc6)CC5)cn4c3=O)c2)(c2nncn2C)C1` (single isomer, unassigned) [Compound 232], for which the DC50 under setting [1] was < 30 nM. Further, under setting [2], the Dmax was > 70%.

Consider `CO[C@H]1C[C@@](c2cccc(-n3cc4c(C(F)(F)F)cc(CN5CCC(CN(C)C(=O)c6ccc(N7CCN(c8ccc9c(c8)CN([C@@H]8CCC(=O)NC8=O)C9=O)CC7)cc6)CC5)cn4c3=O)c2)(c2nncn2C)C1` [Compound 167], for which the DC50 under setting [1] is 1000 to 10000 nM. For the same compound, the Dmax under setting [2] was < 30%.

`Cn1cnnc1CC1(c2cccc(-n3cc4c(C(F)(F)F)cc(CN5CCC[C@@H](OCCc6ccc(CN7CCN(c8ccc9c(c8)CN([C@@H]8CCC(=O)NC8=O)C9=O)CC7)cc6)C5)cn4c3=O)c2)COC1` (single isomer, unassigned) [Compound 239] had a half-maximal degradation concentration (DC50) under setting [1] of 30 to 300 nM. Also, the Dmax under setting [2] was 50 to 70%.

Turning to `Cn1cnnc1CC1(c2cccc(-n3cc4c(C(F)(F)F)cc(CN5CCC[C@@H](OCCc6ccc(CN7CCN(c8ccc9c(c8)CN([C@H]8CCC(=O)NC8=O)C9=O)CC7)cc6)C5)cn4c3=O)c2)COC1` (single isomer, unassigned) [Compound 240], the DC50 under setting [1] was < 30 nM. Also, the maximal degradation (Dmax) under setting [2] is > 70%.

Regarding `Cn1cnnc1CC1(c2cccc(-n3cc4c(C(F)(F)F)cc(CN5CC[C@H](OCCOCc6ccc(COCCNc7cccc8c7C(=O)N(C7CCC(=O)NC7=O)C8=O)cc6)C5)cn4c3=O)c2)COC1` (stereo partly drawn) [Compound 46], under setting [1], the DC50 is > 10000 nM. Under setting [2], the Dmax fell in the range of 30 to 50%.

For `Cn1cnnc1[C@@H](c1cccc(-n2cc3c(C(F)(F)F)cc(CN4CCC(OCc5ccc(C(=O)N6CCN(c7ccc8c(c7)CN([C@H]7CCC(=O)NC7=O)C8=O)CC6)cc5)CC4)cn3c2=O)c1)C1CCC1` (single isomer, unassigned) [Compound 158], the DC50 under setting [1] was < 30 nM. For the same compound, the maximal degradation (Dmax) under setting [2] is > 70%.

As to `Cn1cnnc1[C@@H](c1cccc(-n2cc3c(C(F)(F)F)cc(CN4CCC[C@H](OCc5ccc(CC6CCN(c7ccc8c(c7)CN([C@@H]7CCC(=O)NC7=O)C8=O)CC6)cc5)C4)cn3c2=O)c1)C1CCC1` (single isomer, unassigned) [Compound 187], the DC50 under setting [1] was > 10000 nM.

`CN(CCOC1CCN(Cc2cc(C(F)(F)F)c3cn(-c4cccc([C@H](c5nncn5C)C5CCC5)c4)c(=O)n3c2)CC1)C(=O)c1ccc(N2CC3CC(C2)N3c2ccc3c(c2)CN([C@@H]2CCC(=O)NC2=O)C3=O)cc1` (single isomer, unassigned) [Compound 89] returned a DC50 under setting [1] of 1000 to 10000 nM. Further, the Dmax (THP-1) lay within 30 to 50%.

`Cn1cnnc1[C@@H](c1cccc(-n2cc3c(C(F)(F)F)cc(CN4CCC(CC(=O)N5CCC(Cc6ccc(-c7ccc8c(c7)CN([C@H]7CCC(=O)NC7=O)C8=O)cc6)CC5)CC4)cn3c2=O)c1)C1CCC1` [Compound 180]: the DC50 under setting [1] is < 30 nM. Also, under “THP-1”, the Dmax is > 70%.

For `Cn1cnnc1[C@@H](c1cccc(-n2cc3c(C(F)(F)F)cc(CN4CCC(CCN5CCC(CC6CCN(c7ccc8c(c7)CN([C@@H]7CCC(=O)NC7=O)C8=O)CC6)CC5)CC4)cn3c2=O)c1)C1CCC1` [Compound 163], the DC50 under setting [1] is > 10000 nM. Besides, under setting [2], the Dmax was < 30%.

Consider `CN(C(=O)c1ccc(CN2CCN(c3ccc4c(c3)CN([C@H]3CCC(=O)NC3=O)C4=O)CC2)cc1)C1CCN(Cc2cc(C(F)(F)F)c3cn(-c4cccc(C5(Cc6nncn6C)COC5)c4)c(=O)n3c2)CC1` (single isomer, unassigned) [Compound 246], for which, under setting [1], the DC50 was < 30 nM. Also, the Dmax under setting [2] is > 70%.

For the compound `Cn1cnnc1[C@@H](c1cccc(-n2cc3c(C(F)(F)F)cc(CN4CCC[C@@H](OCCc5ccc(CN6CCN(c7ccc8c(c7)CN([C@@H]7CCC(=O)NC7=O)C8=O)CC6)cc5)C4)cn3c2=O)c1)C1CCC1` (single isomer, unassigned) [Compound 143], the DC50 under setting [1] was 300 to 1000 nM. The greatest degradation seen (Dmax) under setting [2] fell in the range of 30 to 50%.

Regarding `Cn1cnnc1CC1(c2cccc(-n3cc4c(C(F)(F)F)cc(CN5CCC(OCCOCc6ccc(CN7CCN(c8cc9c(cc8F)C(=O)N(C8CCC(=O)NC8=O)C9=O)CC7)cc6)CC5)cn4c3=O)c2)COC1` (stereo not drawn) [Compound 18], under setting [1], the DC50 was > 10000 nM. Further, under setting [2], the Dmax was < 30%.

Consider `CN(C(=O)c1ccc(CN2CCN(c3ccc4c(c3)CN([C@@H]3CCC(=O)NC3=O)C4=O)CC2)cc1)C1CCN(Cc2cc(C(F)(F)F)c3cn(-c4cccc([C@H](c5nncn5C)C5CCC5)c4)c(=O)n3c2)CC1` [Compound 159], for which, under setting [1], the DC50 was > 10000 nM. The Dmax (THP-1) is < 30%.

Under setting [1], `CN(C(=O)c1ccc(CN2CCN(c3ccc4c(c3)CN([C@@H]3CCC(=O)NC3=O)C4=O)CC2)cc1)C1CCN(Cc2cc(C(F)(F)F)c3cn(-c4cccc(C5(Cc6nncn6C)COC5)c4)c(=O)n3c2)CC1` (single isomer, unassigned) [Compound 245] came in with a 50% degradation concentration (DC50) of 300 to 1000 nM. Also, under setting [2], the Dmax fell in the range of 30 to 50%.

Turning to `Cn1cnnc1[C@@H](c1cccc(-n2cc3c(C(F)(F)F)cc(CN4CCC[C@H](OCCOCc5ccc(COCCNc6cccc7c6C(=O)N(C6CCC(=O)NC6=O)C7=O)cc5)CC4)cn3c2=O)c1)C1CCC1` (stereo partly drawn) [Compound 32], the DC50 under setting [1] is 30 to 300 nM. In addition, the Dmax under setting [2] fell in the range of 30 to 50%.

For the compound `CN(C(=O)c1ccc(N2CCN(c3ccc4c(c3)CN([C@@H]3CCC(=O)NC3=O)C4=O)CC2)cc1)C1CCN(Cc2cc(C(F)(F)F)c3cn(-c4cccc([C@H](c5nncn5C)C5CCC5)c4)c(=O)n3c2)CC1` [Compound 137], the DC50 under setting [1] lay within 30 to 300 nM. In addition, the maximal degradation (Dmax) under setting [2] was 30 to 50%.

Consider `Cn1cnnc1[C@@H](c1cccc(-n2cc3c(C(F)(F)F)cc(CN4CCC(OCc5ccc(N6CCN(c7ccc8c(c7)CN([C@@H]7CCC(=O)NC7=O)C8=O)CC6)cc5)CC4)cn3c2=O)c1)C1CCC1` (single isomer, unassigned) [Compound 155], for which the DC50 under setting [1] is > 10000 nM. Under setting [2], the Dmax was < 30%.

For the compound `Cn1cnnc1CC1(c2cccc(-n3cc4c(C(F)(F)F)cc(CN5CCC(N6CCN(c7ccc8c(c7)CN(C7CCC(=O)NC7=O)C8=O)CC6)CC5)cn4c3=O)c2)COC1` (stereo not drawn) [Compound 39], under setting [1], the DC50 was > 10000 nM. The Dmax (THP-1) was < 30%.

For the compound `Cn1cnnc1CC1(c2cccc(-n3cc4c(C(F)(F)F)cc(CN5CCC(CCN6CCC(CC7CCN(c8ccc9c(c8)CN([C@H]8CCC(=O)NC8=O)C9=O)CC7)CC6)CC5)cn4c3=O)c2)COC1` [Compound 260], under setting [1], the DC50 fell in the range of 30 to 300 nM. The Dmax under setting [2] fell in the range of 30 to 50%.

What is called DC50 is the midpoint of the concentration-degradation curve. A higher DC50 goes with a less potent degrader. Usually Dmax stands for the greatest extent of degradation seen.
